In the supplement of paper PMC11451515:

Columns and labels:
SEM cells [1] = assay: AUC of viability dose-response curve (% viability x log10 dose units); higher = less sensitive; settings: 48 h
Summary of the method: (§1)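 In 1536-well plates, leukemia cells adapted to each medium (500 or 1000 cells/well) were exposed for 48 h at 37°C to library compounds in DMSO across 11 threefold doses, 47 μM down to 0.79 nM. Viability was read by CellTiter-Glo One luminescence and normalised per plate to DMSO and cell-free wells. A four-parameter log-logistic fit over log10 doses was integrated by trapezoidal rule. This yielded the area under the curve, with over-full-viability curves scaled and quality-control failures dropped.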

NOMO1 [2] = assay: as above; settings: 48 h
Summary of the method: as §1

SEM cells [3] = assay: cell viability relative to DMSO control; higher = less cytotoxic; settings: 48 h
Summary of the method: (§2)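 Viability values are per-plate percentages of DMSO wells, with background from cell-free wells. Library compounds in DMSO were pin-dosed, in an 11-point threefold series from 47 μM to 0.79 nM, onto NOMO1 or SEM (500 cells/well) or P12-Ichikawa (1000 cells/well) leukemia cells in 1536-well plates (5 μl). Those cells had been adapted for at least four passages in each medium, and CellTiter-Glo One luminescence was read after 48 h at 37°C.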

NOMO1 [4] = assay: as above; settings: RPMI 5 mM glucose + 10% FBS, 48 h
Summary of the method: as §2

P12-Ichikawa = assay: as above; settings: RPMI 5 mM glucose + 10% dialyzed FBS, 48 h
Summary of the method: as §2

[5] = RPMI 5 mM glucose + 10% dialyzed FBS
[6] = HPLM + 10% dialyzed FBS, 0.000781 µM
[7] = HPLM + 10% dialyzed FBS, 0.00234 µM
[8] = HPLM + 10% dialyzed FBS, 0.00702 µM
[9] = HPLM + 10% dialyzed FBS, 0.0211 µM
[10] = HPLM + 10% dialyzed FBS, 0.0632 µM
[11] = HPLM + 10% dialyzed FBS, 0.19 µM
[12] = HPLM + 10% dialyzed FBS, 0.569 µM
[13] = HPLM + 10% dialyzed FBS, 1.71 µM
[14] = HPLM + 10% dialyzed FBS, 5.12 µM
[15] = HPLM + 10% dialyzed FBS, 15.4 µM
[16] = HPLM + 10% dialyzed FBS, 46.1 µM
[17] = RPMI 5 mM glucose + 10% dialyzed FBS, 0.000781 µM
[18] = RPMI 5 mM glucose + 10% dialyzed FBS, 0.00234 µM
[19] = RPMI 5 mM glucose + 10% dialyzed FBS, 0.00702 µM
[20] = RPMI 5 mM glucose + 10% dialyzed FBS, 0.0211 µM
[21] = RPMI 5 mM glucose + 10% dialyzed FBS, 0.0632 µM
[22] = RPMI 5 mM glucose + 10% dialyzed FBS, 0.19 µM
[23] = RPMI 5 mM glucose + 10% dialyzed FBS, 0.569 µM
[24] = RPMI 5 mM glucose + 10% dialyzed FBS, 1.71 µM
[25] = RPMI 5 mM glucose + 10% dialyzed FBS, 5.12 µM
[26] = RPMI 5 mM glucose + 10% dialyzed FBS, 15.4 µM
[27] = RPMI 5 mM glucose + 10% dialyzed FBS, 46.1 µM

Row | Structure (SMILES) | AUC of viability dose-response curve (SEM cells [1]; HPLM + 10% dialyzed FBS) | AUC of viability dose-response curve (SEM cells [1]; RPMI 5 mM glucose + 10% FBS) | AUC of viability dose-response curve (SEM cells [1]; [5]) | AUC of viability dose-response curve (NOMO1 [2]; HPLM + 10% dialyzed FBS) | AUC of viability dose-response curve (NOMO1 [2]; RPMI 5 mM glucose + 10% FBS) | AUC of viability dose-response curve (NOMO1 [2]; [5]) | cell viability (SEM cells [3]; [6]) [%] | cell viability (SEM cells [3]; [7]) [%] | cell viability (SEM cells [3]; [8]) [%] | cell viability (SEM cells [3]; [9]) [%] | cell viability (SEM cells [3]; [10]) [%] | cell viability (SEM cells [3]; [11]) [%] | cell viability (SEM cells [3]; [12]) [%] | cell viability (SEM cells [3]; [13]) [%] | cell viability (SEM cells [3]; [14]) [%] | cell viability (SEM cells [3]; [15]) [%] | cell viability (SEM cells [3]; [16]) [%] | cell viability (SEM cells [3]; [17]) [%] | cell viability (SEM cells [3]; [18]) [%] | cell viability (SEM cells [3]; [19]) [%] | further results
1 | NC/1=N/C(=O)N(/C=C1F)[C@H]2CS[C@H](CO)O2 | 392 | 442 | 418 | 472 | 449 | 462 | 83.9 | 107 | 107 | 115 | 124 | 116 | 123 | 126 | 143 | 142 | 148 | 101 | 118 | 115 | cell viability (SEM cells [3]; [20]): 152%; cell viability (SEM cells [3]; [21]): 126%; cell viability (SEM cells [3]; [22]): 121%; cell viability (SEM cells [3]; [23]): 144%; cell viability (SEM cells [3]; [24]): 131%; cell viability (SEM cells [3]; [25]): 137%; cell viability (SEM cells [3]; [26]): 144%; cell viability (SEM cells [3]; [27]): 153%; cell viability (NOMO1 [4]; 0.000781 µM): 108%; cell viability (NOMO1 [4]; 0.00234 µM): 121%; cell viability (NOMO1 [4]; 0.00702 µM): 121%; cell viability (NOMO1 [4]; 0.0211 µM): 127%; cell viability (NOMO1 [4]; 0.0632 µM): 133%; cell viability (NOMO1 [4]; 0.19 µM): 157%; cell viability (NOMO1 [4]; 0.569 µM): 141%; cell viability (NOMO1 [4]; 1.71 µM): 139%; cell viability (NOMO1 [4]; 5.12 µM): 131%; cell viability (NOMO1 [4]; 15.4 µM): 151%; cell viability (NOMO1 [4]; 46.1 µM): 141%
2 | CC(=O)OCCN1C(=O)c2c(C)nc3ccc([S+](=O)([O-])N4CCOCC4)cc3c2C1=O | 471 | 445 | 457 | 337 | 299 | 329 |  |  |  |  |  |  |  |  |  |  |  | 112 | 114 | 138 | cell viability (SEM cells [3]; [20]): 131%; cell viability (SEM cells [3]; [21]): 129%; cell viability (SEM cells [3]; [22]): 148%; cell viability (SEM cells [3]; [23]): 156%; cell viability (SEM cells [3]; [24]): 140%; cell viability (SEM cells [3]; [25]): 152%; cell viability (SEM cells [3]; [26]): 120%; cell viability (SEM cells [3]; [27]): 142%
3 | CN(C)CCCN1c2ccccc2CCc2ccc(Cl)cc21 | 453 | 453 | 452 | 431 | 448 | 441 | 122 | 132 | 122 | 134 | 118 | 122 | 125 | 122 | 105 | 109 | 39.6 |  |  |  | cell viability (P12-Ichikawa; 0.000781 µM): 71%; cell viability (P12-Ichikawa; 0.00234 µM): 155%; cell viability (P12-Ichikawa; 0.00702 µM): 125%; cell viability (P12-Ichikawa; 0.0211 µM): 145%; cell viability (P12-Ichikawa; 0.0632 µM): 138%; cell viability (P12-Ichikawa; 0.19 µM): 134%; cell viability (P12-Ichikawa; 0.569 µM): 142%; cell viability (P12-Ichikawa; 1.71 µM): 142%; cell viability (P12-Ichikawa; 5.12 µM): 134%; cell viability (P12-Ichikawa; 15.4 µM): 125%; cell viability (P12-Ichikawa; 46.1 µM): 82.9%
